In ChEMBL document CHEMBL1201861, “Genomics of Drug Sensitity in Cancer screening data, Wellcome Trust Sanger Institute”:

Key:
Assay in all cases: cells
Conditions in all cases: Homo sapiens
[1] = tested on: LS-513; type: functional, cell-based
Description: SANGER: Inhibition of human LS-513 cell growth in a cell viability assay.

[2] = tested on: SF-126; type: functional, cell-based;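 further: growth inhibition of human SF126 cells, read out with a cell viability assay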
Description: SANGER: Inhibition of human SF126 cell growth in a cell viability assay.

[3] = tested on: KARPAS-299; type: functional, cell-based
Description: SANGER: Inhibition of human KARPAS-299 cell growth in a cell viability assay.

[4] = tested on: DJM-1; type: functional, cell-based;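 further: growth inhibition of human DJM-1 cells, read out by a cell viability assay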
Description: SANGER: Inhibition of human DJM-1 cell growth in a cell viability assay.

[5] = tested on: Mo; type: functional, cell-based
Description: SANGER: Inhibition of human Mo-T cell growth in a cell viability assay.

[6] = tested on: KURAMOCHI; type: functional, cell-based;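 further: growth inhibition of KURAMOCHI cells, read out with a cell viability assay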
Description: SANGER: Inhibition of human KURAMOCHI cell growth in a cell viability assay.

[7] = tested on: KINGS-1; type: functional, cell-based;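 further: cell viability assay measuring suppression of KINGS-1 cell growth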
Description: SANGER: Inhibition of human KINGS-1 cell growth in a cell viability assay.

[8] = tested on: LU-134-A; type: functional, cell-based
Description: SANGER: Inhibition of human LU-134-A cell growth in a cell viability assay.

[9] = tested on: TK-10; type: functional, cell-based;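 further: growth inhibition of TK-10 cells, read out in a cell viability assay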
Description: SANGER: Inhibition of human TK10 cell growth in a cell viability assay.

[10] = tested on: LS-1034; type: functional, cell-based
Description: SANGER: Inhibition of human LS-1034 cell growth in a cell viability assay.

[11] = tested on: NOMO-1; type: functional, cell-based;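 further: growth inhibition of human NOMO-1 cells measured by a cell viability assay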
Description: SANGER: Inhibition of human NOMO-1 cell growth in a cell viability assay.

[12] = tested on: NCI-H69; type: functional, cell-based;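 further: growth inhibition of the cell line, read out with a cell viability assay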
Description: SANGER: Inhibition of human NCI-H69 cell growth in a cell viability assay.

[13] = tested on: GCIY; type: functional, cell-based;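 further: growth inhibition of the human GCIY cell line, read out by a cell viability assay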
Description: SANGER: Inhibition of human GCIY cell growth in a cell viability assay.

[14] = tested on: SNU1; type: functional, cell-based;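 further: growth inhibition of human NCI-SNU-1 cells, measured with a cell viability assay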
Description: SANGER: Inhibition of human NCI-SNU-1 cell growth in a cell viability assay.

[15] = tested on: Lu-65; type: functional, cell-based;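 further: growth inhibition of Lu-65 cancer cells, read out by a cell viability assay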
Description: SANGER: Inhibition of human LU-65 cell growth in a cell viability assay.

[16] = tested on: TGBC24TKB; type: functional, cell-based;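 further: growth inhibition of human TGBC24TKB cells, read out with a cell viability assay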
Description: SANGER: Inhibition of human TGBC24TKB cell growth in a cell viability assay.

[17] = tested on: LAN-6; type: functional, cell-based;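 further: growth inhibition of LAN-6 cells, determined with a cell viability assay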
Description: SANGER: Inhibition of human LAN-6 cell growth in a cell viability assay.

[18] = tested on: OMC-1; type: functional, cell-based;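 further: growth inhibition of the OMC-1 cell line, measured by a cell viability assay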
Description: SANGER: Inhibition of human OMC-1 cell growth in a cell viability assay.

[19] = tested on: ES5; type: functional, cell-based;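 further: growth inhibition of human ES5 cells, read out by a cell viability assay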
Description: SANGER: Inhibition of human ES5 cell growth in a cell viability assay.

[20] = tested on: QIMR-WIL; type: functional, cell-based;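 further: growth inhibition of QIMR-WIL cells, read out with a cell viability assay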
Description: SANGER: Inhibition of human QIMR-WIL cell growth in a cell viability assay.

[21] = tested on: HOP-62; type: functional, cell-based;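 further: cell growth inhibition determined with a viability assay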
Description: SANGER: Inhibition of human HOP-62 cell growth in a cell viability assay.

[22] = tested on: BB30-HNC; type: functional, cell-based;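 further: growth inhibition of the cultured cell line, read out by a cell viability assay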
Description: SANGER: Inhibition of human BB30-HNC cell growth in a cell viability assay.

[23] = tested on: SK-LMS-1; type: functional, cell-based;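 further: growth inhibition of human SK-LMS-1 cells, read out with a cell viability assay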
Description: SANGER: Inhibition of human SK-LMS-1 cell growth in a cell viability assay.

[24] = tested on: HC-1; type: functional, cell-based;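 further: growth inhibition of HC-1 cells measured by a cell viability assay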
Description: SANGER: Inhibition of human HC-1 cell growth in a cell viability assay.

[25] = tested on: NB6; type: functional, cell-based;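 further: growth inhibition of NB6 cells, read out by a cell viability assay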
Description: SANGER: Inhibition of human NB6 cell growth in a cell viability assay.

[26] = tested on: KY821; type: functional, cell-based;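 further: growth inhibition of human KY821 cells, read out by a cell viability assay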
Description: SANGER: Inhibition of human KY821 cell growth in a cell viability assay.

[27] = tested on: ONS-76; type: functional, cell-based;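 further: growth inhibition of human ONS-76 cells, read out with a cell viability assay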
Description: SANGER: Inhibition of human ONS-76 cell growth in a cell viability assay.

[28] = tested on: SNU-C2B; type: functional, cell-based;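 further: cell viability readout used to measure compound-driven suppression of SNU-C2B cell proliferation, IC50 marking half-maximal growth inhibition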
Description: SANGER: Inhibition of human SNU-C2B cell growth in a cell viability assay.

[29] = tested on: KMOE-2; type: functional, cell-based;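 further: growth inhibition of human KMOE-2 cells, read out with a cell viability assay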
Description: SANGER: Inhibition of human KMOE-2 cell growth in a cell viability assay.

[30] = tested on: A704; type: functional, cell-based;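 further: growth inhibition of human A704 cells, read out with a cell viability assay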
Description: SANGER: Inhibition of human A704 cell growth in a cell viability assay.

[31] = tested on: C8166; type: functional, cell-based;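 further: growth inhibition of human C8166 cells measured by a cell viability assay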
Description: SANGER: Inhibition of human C8166 cell growth in a cell viability assay.

[32] = tested on: HCE-T; type: functional, cell-based;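 further: cell viability assay read-out, reporting inhibition of HCE-T cell growth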
Description: SANGER: Inhibition of human HCE-T cell growth in a cell viability assay.

[33] = tested on: RPMI-8866; type: functional, cell-based
Description: SANGER: Inhibition of human RPMI-8866 cell growth in a cell viability assay.

[34] = tested on: SW 962; type: functional, cell-based;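 further: growth inhibition of human SW962 cells, read out by a cell viability assay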
Description: SANGER: Inhibition of human SW962 cell growth in a cell viability assay.

[35] = tested on: D-502MG; type: functional, cell-based
Description: SANGER: Inhibition of human D-502MG cell growth in a cell viability assay.

[36] = tested on: HuTu80; type: functional, cell-based, HUTU-80;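 further: growth inhibition of HuTu80 human cells, determined with a cell viability readout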
Description: SANGER: Inhibition of human HUTU-80 cell growth in a cell viability assay.

[37] = tested on: CW-2; type: functional, cell-based;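 further: growth inhibition of CW-2 cells, read out by a cell viability assay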
Description: SANGER: Inhibition of human CW-2 cell growth in a cell viability assay.

[38] = tested on: MSTO-211H; type: functional, cell-based
Description: SANGER: Inhibition of human MSTO-211H cell growth in a cell viability assay.

[39] = tested on: 8-MG-BA; type: functional, cell-based;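 further: growth inhibition of 8-MG-BA cells, read out with a cell viability assay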
Description: SANGER: Inhibition of human 8-MG-BA cell growth in a cell viability assay.

[40] = tested on: EW-1; type: functional, cell-based;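 further: growth inhibition of the human EW-1 cell line, read out by a cell viability assay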
Description: SANGER: Inhibition of human EW-1 cell growth in a cell viability assay.

[41] = tested on: IA-LM; type: functional, cell-based;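 further: cell viability assay measuring growth inhibition of human IA-LM cells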
Description: SANGER: Inhibition of human IA-LM cell growth in a cell viability assay.

[42] = tested on: SW982; type: functional, cell-based;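 further: growth inhibition of SW982 cells, read out with a cell viability assay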
Description: SANGER: Inhibition of human SW982 cell growth in a cell viability assay.

[43] = tested on: LNCaP-Clone-FGC; type: functional, cell-based
Description: SANGER: Inhibition of human LNCaP-Clone-FGC cell growth in a cell viability assay.

[44] = tested on: MHH-PREB-1; type: functional, cell-based;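 further: cell viability assay measuring inhibition of proliferation of human MHH-PREB-1 cells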
Description: SANGER: Inhibition of human MHH-PREB-1 cell growth in a cell viability assay.

[45] = tested on: U-87 MG; type: functional, cell-based, U-87MG ATCC;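 further: growth inhibition of the cells measured with a viability assay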
Description: SANGER: Inhibition of human U-87-MG cell growth in a cell viability assay.

[46] = tested on: NEC8; type: functional, cell-based;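 further: growth inhibition of human NEC8 cells, read out by a cell viability assay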
Description: SANGER: Inhibition of human NEC8 cell growth in a cell viability assay.

[47] = tested on: KLE; type: functional, cell-based;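 further: growth inhibition of human KLE cells, read out with a cell viability assay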
Description: SANGER: Inhibition of human KLE cell growth in a cell viability assay.

[48] = tested on: NCI-H1155; type: functional, cell-based;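 further: cell growth inhibition measured by a viability assay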
Description: SANGER: Inhibition of human NCI-H1155 cell growth in a cell viability assay.

[49] = tested on: KARPAS-45; type: functional, cell-based;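 further: inhibition of cell line growth, read out through a viability assay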
Description: SANGER: Inhibition of human KARPAS-45 cell growth in a cell viability assay.

[50] = tested on: COLO-668; type: functional, cell-based
Description: SANGER: Inhibition of human COLO-668 cell growth in a cell viability assay.

[51] = tested on: KS-1; type: functional, cell-based;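 further: growth inhibition of KS-1 cells, read out with a cell viability assay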
Description: SANGER: Inhibition of human KS-1 cell growth in a cell viability assay.

[52] = tested on: HCC2218; type: functional, cell-based;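 further: cell viability assay read-out, with IC50 given as the concentration that inhibits growth of the cell line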
Description: SANGER: Inhibition of human HCC2218 cell growth in a cell viability assay.

[53] = tested on: P30-OHK; type: functional, cell-based;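 further: growth inhibition of the P30-OHK cell line, read out with a cell viability assay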
Description: SANGER: Inhibition of human P30-OHK cell growth in a cell viability assay.

[54] = tested on: TE-8; type: functional, cell-based;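 further: growth inhibition of TE-8 cells, measured with a cell viability readout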
Description: SANGER: Inhibition of human TE-8 cell growth in a cell viability assay.

[55] = tested on: CCRF-CEM; type: functional, cell-based;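 further: inhibition of CCRF-CEM cell growth, measured by a cell viability assay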
Description: SANGER: Inhibition of human CCRF-CEM cell growth in a cell viability assay.

[56] = tested on: NOS-1; type: functional, cell-based;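 further: growth inhibition of the human NOS-1 cell line, read out with a cell viability assay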
Description: SANGER: Inhibition of human NOS-1 cell growth in a cell viability assay.

[57] = tested on: HH; type: functional, cell-based
Description: SANGER: Inhibition of human HH cell growth in a cell viability assay.

[58] = tested on: Ramos-2G6-4C10; type: functional, cell-based;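 further: growth inhibition of the cell line, measured by a cell viability read-out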
Description: SANGER: Inhibition of human Ramos-2G6-4C10 cell growth in a cell viability assay.

[59] = tested on: LXF-289 cell line; type: functional, cell-based
Description: SANGER: Inhibition of human LXF-289 cell growth in a cell viability assay.

[60] = tested on: SK-NEP-1; type: functional, cell-based
Description: SANGER: Inhibition of human SK-NEP-1 cell growth in a cell viability assay.

[61] = tested on: NCI-H747; type: functional, cell-based
Description: SANGER: Inhibition of human NCI-H747 cell growth in a cell viability assay.

[62] = tested on: EKVX; type: functional, cell-based
Description: SANGER: Inhibition of human EKVX cell growth in a cell viability assay.

[63] = tested on: MHH-NB-11; type: functional, cell-based
Description: SANGER: Inhibition of human MHH-NB-11 cell growth in a cell viability assay.

[64] = tested on: MLMA; type: functional, cell-based
Description: SANGER: Inhibition of human MLMA cell growth in a cell viability assay.

[65] = tested on: DOHH-2; type: functional, cell-based
Description: SANGER: Inhibition of human DOHH-2 cell growth in a cell viability assay.

Cc1n[nH]c2ccc(-c3cncc(OC[C@@H](N)Cc4c[nH]c5ccccc45)c3)cc12 [A-443654]
IC50 [1]: > 1020 nM | IC50 [2]: 311 nM | IC50 [3]: 473 nM | IC50 [4]: 331 nM | IC50 [5]: > 1020 nM | IC50 [6]: 244 nM | IC50 [7]: 292 nM | IC50 [8]: 363 nM | IC50 [9]: 226 nM | IC50 [10]: 630 nM | IC50 [11]: 561 nM | IC50 [12]: 318 nM | IC50 [13]: 261 nM | IC50 [14]: 400 nM | IC50 [15]: > 1020 nM | IC50 [16]: 810 nM | IC50 [17]: 886 nM | IC50 [18]: 191 nM | IC50 [19]: > 1020 nM | IC50 [20]: 256 nM | IC50 [21]: 140 nM | IC50 [22]: 220 nM | IC50 [23]: 276 nM | IC50 [24]: 208 nM | IC50 [25]: 480 nM | IC50 [26]: 246 nM | IC50 [27]: 444 nM | IC50 [28]: 290 nM | IC50 [29]: > 1020 nM | IC50 [30]: 261 nM | IC50 [31]: > 1020 nM | IC50 [32]: 451 nM | IC50 [33]: > 1020 nM | IC50 [34]: 255 nM | IC50 [35]: > 1020 nM | IC50 [36]: 114 nM | IC50 [37]: > 1020 nM | IC50 [38]: > 1020 nM | IC50 [39]: 163 nM | IC50 [40]: 221 nM | IC50 [41]: 200 nM | IC50 [42]: 166 nM | IC50 [43]: > 1020 nM | IC50 [44]: 271 nM | IC50 [45]: > 1020 nM | IC50 [46]: > 1020 nM | IC50 [47]: 226 nM | IC50 [48]: 564 nM | IC50 [49]: 296 nM | IC50 [50]: 405 nM | IC50 [51]: 53.5 nM | IC50 [52]: 266 nM | IC50 [53]: > 1020 nM | IC50 [54]: 137 nM | IC50 [55]: 144 nM | IC50 [56]: 93.8 nM | IC50 [57]: 223 nM | IC50 [58]: 170 nM | IC50 [59]: 179 nM | IC50 [60]: 519 nM | IC50 [61]: 82.5 nM | IC50 [62]: > 1020 nM | IC50 [63]: > 1020 nM | IC50 [64]: 447 nM | IC50 [65]: 240 nM

CCNC(=O)c1noc(-c2cc(C(C)C)c(O)cc2O)c1-c1ccc(CN2CCOCC2)cc1 [LUMINESPIB]
IC50 [1]: 74.6 nM | IC50 [2]: 50.1 nM | IC50 [3]: 230 nM | IC50 [4]: 42.7 nM | IC50 [5]: > 256 nM | IC50 [6]: 61.9 nM | IC50 [7]: 24.3 nM | IC50 [8]: 57.1 nM | IC50 [9]: 13.8 nM | IC50 [10]: 41.9 nM | IC50 [11]: 71.7 nM | IC50 [12]: > 256 nM | IC50 [13]: 20.6 nM | IC50 [14]: 78.9 nM | IC50 [15]: 202 nM | IC50 [16]: > 256 nM | IC50 [17]: 85 nM | IC50 [18]: 17.5 nM | IC50 [19]: > 256 nM | IC50 [20]: 12.7 nM | IC50 [21]: 15.4 nM | IC50 [22]: 9.52 nM | IC50 [23]: 4.58 nM | IC50 [24]: 40.7 nM | IC50 [25]: > 256 nM | IC50 [26]: > 256 nM | IC50 [27]: 29.5 nM | IC50 [28]: 12.7 nM | IC50 [29]: 57.5 nM | IC50 [30]: > 256 nM | IC50 [31]: 11.3 nM | IC50 [32]: 28.6 nM | IC50 [33]: > 256 nM | IC50 [34]: 28.5 nM | IC50 [35]: > 256 nM | IC50 [36]: 20 nM | IC50 [37]: > 256 nM | IC50 [38]: > 256 nM | IC50 [39]: 18.8 nM | IC50 [40]: 28.2 nM | IC50 [41]: 10.9 nM | IC50 [42]: 12.9 nM | IC50 [43]: 81.7 nM | IC50 [44]: 93.1 nM | IC50 [45]: 32.9 nM | IC50 [46]: > 256 nM | IC50 [47]: 162 nM | IC50 [48]: > 256 nM | IC50 [49]: 93.5 nM | IC50 [50]: 79.8 nM | IC50 [51]: 8.59 nM | IC50 [52]: 100 nM | IC50 [53]: > 256 nM | IC50 [54]: 2.37 nM | IC50 [55]: 23.3 nM | IC50 [56]: 15.9 nM | IC50 [57]: 142 nM | IC50 [58]: 76.5 nM | IC50 [59]: 26.7 nM | IC50 [60]: 159 nM | IC50 [61]: 45.7 nM | IC50 [62]: 105 nM | IC50 [63]: 254 nM | IC50 [64]: 46.1 nM | IC50 [65]: 186 nM
